Experimental data: patent publication US12686692B2, “KRas G12D inhibitors” (Mirati Therapeutics, Inc., priority 2020, dated 2026)

Experiments:
[1] = target: T1, KRas G12D (Homo sapiens, UniProt P01116, G12D); assay: KRas G12D Surface Plasmon Resonance (SPR) Binding Assay; conditions: Biacore T200, biotinylated Avidin-tagged KRAS protein on SA chip, 20 C, 1:1 binding model
Procedure: This Example illustrates that exemplary compounds of the present invention bind to KRas G12D as measured by surface plasmon resonance (SPR). Briefly, 1 L of 1.05×HBS-Mg buffer (262.5 mM BioUltra Hepes, pH 7.5, 157.5 mM NaCl, 105 mM MgCl2, 0.525 mM TCEP, […] Brij-35) was prepared and filter sterilized using a 0.22 μm bottle top filter. Approximately 50 mL of 1.05×HBS-Mg buffer was removed and saved for future dilutions. A 50 mL aliquot of DMSO (Sigma Aldrich DMSO Lot. #SHBK2079) was added and continued to stir for 10 minutes, creating the final 1.0×HBS-Mg buffer (250 mM BioUltra Hepes pH 7.5, 150 mM NaCl, 100 mM MgCl2, 0.5 mM TCEP, 0.03% Brij-35). Biacore T200 instrument was primed using 1.0×HBS-Mg buffer before docking a GE Streptavidin (SA) chip and then primed two additional times prior to beginning the immobilization step. All immobilized protein mixtures were created using 3-5 mg/mL Biotinylated Avidin-tagged KRAS protein using the following immobilization settings: SA chip type, 1 flow cells per cycle, 720 second contact time, and 5 μL/min flow rate. Normalization of the detector was also performed during the immobilization step using the GE BiaNormalize solution. All compounds were diluted to 10 mM in 100% DMSO prior to being diluted 20× in 1.05× buffer. Another 10× dilution was created using 1.0× buffer prior to performing a series of 3× dilutions to create a compound concentration curve using the following assay settings: 20 C analysis temperature, General Settings=10 Hz data collection rate and multi-detection; Assay Steps=all set to LMW kinetics; Cycle Types=LMW kinetics (60s contact time, 120s dissociation time, 100 μL/min flow rate, extra wash after injection with 50% DMSO, flow path 1,2,3,4); Flow path detection=2-1, 4-3). Data evaluation was performed using the Biacore T200 Evaluation software and data fit to 1:1 binding model.
Target sequence in this assay (P01116 1-188 isoform P01116-2 G12D): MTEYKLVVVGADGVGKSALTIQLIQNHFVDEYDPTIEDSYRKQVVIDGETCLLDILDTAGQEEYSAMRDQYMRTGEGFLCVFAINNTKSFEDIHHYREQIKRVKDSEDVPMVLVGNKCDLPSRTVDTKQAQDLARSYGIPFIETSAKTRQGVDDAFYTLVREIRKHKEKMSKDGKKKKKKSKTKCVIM

[2] = target: T1, KRas G12D; assay: KRas G12D Binding Assay (TR-FRET displacement of labeled tracer); parameters: corresponding to amino acids 1:169, produced at Array BioPharma; biotin (protein is biotinylated); conditions: TR-FRET displacement of Cy5 labelled tracer, biotinylated GDP-loaded KRAS G12D (aa 1:169), 60 minute incubation at 22° C.
Procedure, shortened: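 Biotinylated GDP-loaded human KRAS G12D (aa 1–169) incubated with Cy5 tracer, Eu-streptavidin and compound (2% DMSO final) in 50 mM HEPES pH 7.5, 5 mM MgCl2, 0.005% Tween-20, 1 mM DTT, 60 min at 22 °C. TR-FRET ratio converted to percent of control; IC50 at 50 POC from 4-parameter logistic fit.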
Target sequence in this assay (P01116 1-169 isoform P01116-2 G12D): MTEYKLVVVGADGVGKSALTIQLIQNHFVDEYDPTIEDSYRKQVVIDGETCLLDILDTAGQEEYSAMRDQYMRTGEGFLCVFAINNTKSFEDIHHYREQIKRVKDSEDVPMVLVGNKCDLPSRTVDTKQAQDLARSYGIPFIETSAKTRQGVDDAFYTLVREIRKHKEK

[3] = test system: KRas G12D-mediated Phosphorylation of ERK; assay: Inhibition of KRas G12D-mediated Phosphorylation of ERK in AGS cells; assay type: cell-based; conditions: Homo sapiens; AGS cells expressing G12D, 3 hours, phospho-ERK normalized to GAPDH
Procedure: AGS cells (ATCC CRL-1739) expressing G12D were grown in DMEM medium supplemented with 10% fetal bovine serum, 10 mM HEPES, and Penicillin/Streptomycin. Cells were plated in tissue culture treated 96 well plates at a density of 40,000 cells/well and allowed to attach for 12-14 hours. Diluted compounds were then added in a final concentration of 0.5% DMSO. After 3 hours, the medium was removed, 150 μl of 4.0% formaldehyde was added and the plates incubated at room temperature for 20 minutes. The plates were washed with PBS, and permeabilized with 150 μL of ice cold 100% methanol for 10 minutes. Non-specific antibody binding to the plates was blocked using 100 μL Licor blocking buffer (Li-Cor Biotechnology, Lincoln NE) for 1 hour at room temperature.
The amount of phospho-ERK was determined using an antibody specific for the phosphorylated form of ERK and compared to the amount of GAPDH. Primary antibodies used for the detection were added as follows: Phospho-ERK(Cell Signaling cs-9101) diluted 1:500 and GAPDH(Millipore MAB374) diluted 1:5000 in Licor block+0.05% Tween 20. The plates were incubated for 2 hours at room temperature. The plates were washed with PBS+0.05% Tween 20.
Secondary antibodies used to visualize primary antibodies were added as follows: Anti-rabbit-680 diluted 1:1000 and Anti-mouse-800 diluted 1:1000 both in Licor block+0.05% Tween20, and were incubated for 1 hour at room temperature. The plates were washed with PBS+0.05% Tween 20. A 100 μl aliquot of PBS was added to each well and the plates were read on a Li-Cor Odyssey CLX plate reader.
The phospho-ERK(Thr202/Tyr204 signal was normalized to the GAPDH signal for each well and percent of DMSO control values were calculated. IC50 values were generated using a 4-parameter fit of the dose response curve.

| SMILES | Kd [1] | IC50 [2] | IC50 [3] |
| --- | --- | --- | --- |
| CN1CCC[C@H]1COc1nc2c(c(N3C[C@H]4CC[C@@H](C3)N4)n1)CCN(c1cccc3cccc(CCCCO)c13)C2 [Example 84, 4-(8-(4-((1R,5S)-3,8-diazabicyclo[3.2.1]octan-3-yl)-2-(((S)-1-methylpyrrolidin-2-yl)methoxy)-5,8-dihydropyrido[3,4-d]pyrimidin-7(6H)-yl)naphthalen-1-yl)butan-1-ol] | 8710 nM | 3690 nM | – |
| C[C@H]1CC2CN(c3nc(OC[C@@H]4CCCN4C)nc4c3CCN(c3cccc5cccc(Cl)c35)C4)C[C@H]1N2 (single isomer, unassigned) [Example 88] | 2100 nM | 1090 nM | – |
| CN1CCC[C@H]1COc1nc2c(c(N3C[C@H]4CC[C@@H](C3)N4)n1)CCN(c1c(F)c(O)c(F)c3ccccc13)C2 [Example 25, 4-(4-((1R,5S)-3,8-diazabicyclo[3.2.1]octan-3-yl)-2-(((S)-1-methylpyrrolidin-2-yl)methoxy)-5,8-dihydropyrido[3,4-d]pyrimidin-7(6H)-yl)-1,3-difluoronaphthalen-2-ol] | 847 nM | 6790 nM | – |
| Cc1c(O)cc(N2CCc3c(nc(OC[C@@H]4CCCN4C)nc3N3C[C@H]4CC[C@@H](C3)N4)C2)c2ccccc12 [Example 69, 4-(4-((1R,5S)-3,8-diazabicyclo[3.2.1]octan-3-yl)-2-(((S)-1-methylpyrrolidin-2-yl)methoxy)-5,8-dihydropyrido[3,4-d]pyrimidin-7(6H)-yl)-1-methylnaphthalen-2-ol] | 38400 nM | > 10000 nM | – |
| CN1CCC[C@H]1COc1nc2c(c(N3C[C@H]4CC[C@@H](C3)N4)n1)CCN(c1cccc3c1C(CC#N)CCC3)C2 (stereo partly drawn) [Example 85, 2-(8-(4-((1R,5S)-3,8-diazabicyclo[3.2.1]octan-3-yl)-2-(((S)-1-methylpyrrolidin-2-yl)methoxy)-5,8-dihydropyrido[3,4-d]pyrimidin-7(6H)-yl)-1,2,3,4-tetrahydronaphthalen-1-yl)acetonitrile] | 1510 nM | – | – |
| CN1CCC[C@H]1COc1nc2c(c(N3C[C@@H]4C[C@H](CO)[C@H](C3)N4)n1)CCN(c1cc(O)cc3ccccc13)C2 [Example 120, 4-(4-((1S,5R,6S)-6-(hydroxymethyl)-3,8-diazabicyclo[3.2.1]octan-3-yl)-2-(((S)-1-methylpyrrolidin-2-yl)methoxy)-5,8-dihydropyrido[3,4-d]pyrimidin-7(6H)-yl)naphthalen-2-ol] | 1400 nM | – | – |
| F[C@H]1CN2CCCC2(COc2nc3c(c(N4CC5CCC(C4)N5)n2)CCN(c2cccc4cccc(Cl)c24)C3)C1 (mixture of isomers) [Example 46, 4-((1R,5S)-3,8-diazabicyclo[3.2.1]octan-3-yl)-7-(8-chloronaphthalen-1-yl)-2-((2-fluorotetrahydro-1H-pyrrolizin-7a(5H)-yl)methoxy)-5,6,7,8-tetrahydropyrido[3,4-d]pyrimidine] | – | 4.4 nM | 4570 nM |
| CCc1cccc2cccc(N3CCc4c(nc(OCC56CCCN5[C@@H](COC(=O)NC)CC6)nc4N4CC5CCC(C4)N5)C3)c12 (stereo partly drawn) [Example 5, (7a-(((4-((1R,5S)-3,8-diazabicyclo[3.2.1]octan-3-yl)-7-(8-ethylnaphthalen-1-yl)-5,6,7,8-tetrahydropyrido[3,4-d]pyrimidin-2-yl)oxy)methyl)hexahydro-1H-pyrrolizin-3-yl)methyl methylcarbamate (trans enantiomers)] | – | 1.6 nM | 142 nM |
| CCc1c(F)ccc2cccc(N3CCc4c(nc(OC[C@]56CCCN5[C@@H](COC(=O)N5CCOCC5)CC6)nc4N4C[C@H]5CC[C@@H](C4)N5)C3)c12 [Example 98, ((3R,7aR)-7a-(((4-((1R,5S)-3,8-diazabicyclo[3.2.1]octan-3-yl)-7-(8-ethyl-7-fluoronaphthalen-1-yl)-5,6,7,8-tetrahydropyrido[3,4-d]pyrimidin-2-yl)oxy)methyl)hexahydro-1H-pyrrolizin-3-yl)methyl morpholine-4-carboxylate] | – | 0.7 nM | 50 nM |
| CCc1cccc2cc(O)cc(N3CCc4c(nc(OCC56CCCN5C[C@H](F)C6)nc4N4CC5CCC(C4)N5)C3)c12 (mixture of isomers) [Example 6, 4-(4-((1R,5S)-3,8-diazabicyclo[3.2.1]octan-3-yl)-2-((2-fluorotetrahydro-1H-pyrrolizin-7a(5H)-yl)methoxy)-5,8-dihydropyrido[3,4-d]pyrimidin-7(6H)-yl)-5-ethylnaphthalen-2-ol (racemic, trans)] | – | 0.8 nM | 12 nM |
| CCc1cccc2cc(O)cc(N3CCc4c(nc(OCC56CCCN5C(CF)CC6)nc4N4CC5CCC(C4)N5)C3)c12 (mixture of isomers) [Example 23, 4-(4-((1R,5S)-3,8-diazabicyclo[3.2.1]octan-3-yl)-2-((3-(fluoromethyl)tetrahydro-1H-pyrrolizin-7a(5H)-yl)methoxy)-5,8-dihydropyrido[3,4-d]pyrimidin-7(6H)-yl)-5-ethylnaphthalen-2-ol (mixture or isomers)] | – | 1.1 nM | 119 nM |
| CCc1cccc2cccc(N3CCc4c(nc(OCC56CCCN5C(COC(=O)N5CCS(=O)(=O)CC5)CC6)nc4N4C[C@H]5CC[C@@H](C4)N5)C3)c12 (mixture of isomers) [Example 67, (7a-(((4-((1R,5S)-3,8-diazabicyclo[3.2.1]octan-3-yl)-7-(8-ethylnaphthalen-1-yl)-5,6,7,8-tetrahydropyrido[3,4-d]pyrimidin-2-yl)oxy)methyl)hexahydro-1H-pyrrolizin-3-yl)methyl thiomorpholine-4-carboxylate 1,1-dioxide] | – | 1.5 nM | 150 nM |
| Oc1cc(N2CCc3c(nc(OCC45CCCN4CCC5)nc3N3C[C@H]4CC[C@@H](C3)N4)C2)c2c(Cl)c(F)ccc2c1 [Example 116, 4-(4-((1R,5S)-3,8-diazabicyclo[3.2.1]octan-3-yl)-2-((hexahydro-1H-pyrrolizin-7a-yl)methoxy)-5,6-dihydropyrido[3,4-d]pyrimidin-7(8H)-yl)-5-chloro-6-fluoronaphthalen-2-ol] | – | 0.5 nM | 46 nM |
| F[C@H]1CN2CCCC2(COc2nc3c(c(N4CC5CCC(C4)N5)n2)CCN(c2cccc(Cl)c2C2CC2)C3)C1 (mixture of isomers) [Example 17, 4-((1R,5S)-3,8-diazabicyclo[3.2.1]octan-3-yl)-7-(3-chloro-2-cyclopropylphenyl)-2-((2-fluorotetrahydro-1H-pyrrolizin-7a(5H)-yl)methoxy)-5,6,7,8-tetrahydropyrido[3,4-d]pyrimidine (racemic, trans)] | – | 29.5 nM | > 16700 nM |
| CCc1cccc2cccc(N3CCc4c(nc(OCC56CCCN5[C@@H](COC(=O)N(C)C)CC6)nc4N4CC5CCC(C4)N5)C3)c12 (stereo partly drawn) [Example 13, (7a-(((4-((1R,5S)-3,8-diazabicyclo[3.2.1]octan-3-yl)-7-(8-ethylnaphthalen-1-yl)-5,6,7,8-tetrahydropyrido[3,4-d]pyrimidin-2-yl)oxy)methyl)hexahydro-1H-pyrrolizin-3-yl)methyl dimethylcarbamate (trans enantiomers)] | – | 1.3 nM | 261 nM |
